Measured values published in patent US6043228A, “O^6 -substituted guanine derivatives, a process for their preparation and their use in treating tumor cells” (Cancer Research Campaign Technology Limited, priority 1993, dated 2000).
“Also recorded” adds a separate entry of the source. Like-named read-outs stand apart in the source and are kept apart here.

Key:
recombinant human ATase = target: T1, recombinant human ATase (Homo sapiens, UniProt P16455); assay: In vitro ATase inactivation assay (incubation with inactivators and ATase assay); format: biochemical; conditions: for ATase inactivation in vitro, result in words: recombinant human ATase, standard conditions
T1 construct: made in house
T1 sequence (P16455 1-207): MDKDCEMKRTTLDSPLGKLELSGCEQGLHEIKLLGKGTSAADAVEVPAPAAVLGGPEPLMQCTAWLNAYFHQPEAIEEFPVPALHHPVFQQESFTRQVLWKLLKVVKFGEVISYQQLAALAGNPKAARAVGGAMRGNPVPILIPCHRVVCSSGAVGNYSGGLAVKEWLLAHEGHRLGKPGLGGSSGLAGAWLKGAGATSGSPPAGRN
Experimental: The cDNA cloning and overexpression of the human ATase has been reported previously^23. Purification of the recombinant proteins was achieved either by affinity chromatography through a DNA-cellulose column as described by Wilkinson et al.,^25, 26 or by DEAE-cellulose ion-exchange chromatography. For the latter, the ATase protein was partially purified by ammonium sulphate precipitation (30-60%) and dialysed against 10 mM Tris-HCl pH 7.5, 1 mM DTT, 2 mM EDTA, 10% glycerol, before loading on a DEAE-cellulose column. The ATase was then eluted with a 0-0.1 M NaCl gradient.
Compounds to be tested were dissolved in DMSO to a final concentration of 10 mM and diluted just before use in buffer I containing 1 mg/ml bovine serum albumin (IBSA). Recombinant ATase was diluted in IBSA and titrated in order that the reaction be conducted under ATase, and not substrate, limiting conditions. […] Following acid hydrolysis of the DNA as previously described^21 the [^3 H]-methylated protein was recovered and quantitated by liquid scintillation counting. Samples were typically assayed in duplicate and experiments repeated several times. I50 is the concentration of inactivator required to produce a 50% reduction in ATase activity.

Raji cells [1] = assay: Sensitization of Raji cells to BCNU (XTT assay); format: cell-based, human; conditions: 1.0 μM inactivator (FIG. 2)
Experimental: (§1) Following a 2 hour incubation at 37° C., medium containing either increasing doses of BCNU, temozolomide or equivalent vehicle was added and the cells allowed to grow for 6 days. At this time XTT solution was added and the cells incubated for a further 4 hours at 37° C. The resulting red/orange formazan reaction product was quantified by measuring absorption at 450 nm on a microtitre platereader.

[2] = Toxicity of inactivators in combination with BCNU in DBA2 mice; format: in vivo, mouse; conditions: mouse, in vivo, ip, 60 mg/kg, single i.p. dose, read-out: % SURVIVAL AFTER 14 DAYS
Description: All agents were given as a single i.p. dose

Raji cells [3] = assay: Sensitization of Raji cells to temozolomide (XTT assay); format: cell-based, human; conditions: 0.1-5.0 μM inactivator (FIGS. 3, 4)
Experimental: as §1

nude mice = assay: Xenograft study: survival of nude mice given inactivator plus BCNU; conditions: in combination with BCNU (FIGS. 9-13)
Description: BALB-C derived athymic male mice (nu/nu athymic) weighing between 25-35 g were obtained from the in-house breeding colony of the Paterson Institute for Cancer Research, Christie Hospital NHS Trust, Wilmslow Road, Manchester M20 9BX, England (ASU mice). The animals were housed in a sterile environment until required for experiments. In one experiment mice were obtained from Harlan-Olac, Harlan UK Limited, Shaw's Farm, Blackthorn, Bicester, Oxon. OX6 OPT, England (OLAC mice).

[4] = test system: human bone marrow granulocyte macrophage colony forming cells; assay: Sensitization of bone marrow cells to temozolomide (GM-CFC assay); format: cell-based
Description: For the granulocyte/macrophage colony-forming cell (GM-CFC) assay primary human bone marrow samples were obtained from patients undergoing cardiothoracic surgery. […] The colonies represented precursor cells of the granulocyte/macrophage lineage (huGM-CFC). Survival was expressed as a % of the number of colonies at zero dose temozolomide.

[5] = target: T2, ATase in human melanoma xenografts (Homo sapiens, UniProt P16455); assay: ATase activity in human melanoma (A375) xenografts grown in nude mice after inactivator; format: in vivo; conditions: single i.p. dose 30 or 60 mg/kg (FIG. 17)
T2 construct: A375M cells are human melanoma cells from which the xenografts described below were established; endogenous in cells; host or cells: A375M xenograft grown in nude mice
T2 sequence (P16455 1-207): T1 sequence (P16455 1-207)
Experimental: Cells (10^6) in 100 μl of PBS were injected subcutaneously into the right-hand flank of 8-10 week old nu/nu athymic mice. These cells were allowed to develop into a tumour for 3-4 weeks for passaging into experimental animals. Tumour blocks measuring 2 mm×2 mm×2 mm were implanted subcutaneously on the right hand flank. These animals were ready for use in inactivator experiments in 7-10 days.
ATase substrate DNA was prepared by incubation of purified calf thymes DNA with N-[^3 H]-methyl-N-nitrosuourea (18.7 Ci/mmole, Amersham International). Cell or tissue extracts (see 4.4) were incubated with [^3 H]-methylated-DNA substrate (100 μl containing 6.7 μg of DNA and 100 fmol of O^6 -[^3 H]methylguanine) at 37° C. for 60 mins. Following acid hydrolysis of the DNA as precviously described^21the [^3 H]-methylated protein was recovered and quantitated by liquid scintillation counting.
Mice were treated with the inactivator as a suspension in corn oil by intraperitoneal injection (i.p.) or by oral gavage (p.o.) 60 mins prior to temozolomide (100 mg/kg in 20% DMSO in phosphate-buffered saline) which was always given by intraperitoneal injection: this schedule was repeated on days 1 to 5 inclusive. Controls received vehicle alone, inactivator alone or temozolomide alone.

[6] = Table 9, pure recombinant ATase in vitro, read-out: I50 (μm)

| Compound | ATase inactivation in vitro, result in words (recombinant human ATase) | IC50 (recombinant human ATase; [6]) | also measured |
| --- | --- | --- | --- |
| CC(Oc1nc(N)nc2[nH]cnc12)c1ccccc1 (racemic) [B.4214, DL-0^6 -(α-methylbenzyl)guanine, reference compound] | reduce greatly the inactivating activity; also recorded: did not inactivate ATase up to the highest concentration used |  |  |
| CC(Oc1nc(N)nc2[nH]cnc12)c1cccs1 (racemic) [B.4217, DL-0^6 -(α-methylthenyl)guanine] | reduce greatly the inactivating activity; also recorded: did not inactivate ATase up to the highest concentration used |  |  |
| Nc1nc(OCc2ccsc2)c2nc[nH]c2n1 [B.4206, 0^6-(3-thienylmethyl)guanine] | somewhat more effective than BeG; also recorded: I50 values lower than that of BeG |  |  |
| Nc1nc(OCc2ccc3c(c2)OCO3)c2nc[nH]c2n1 [B.4212, 0^6 -piperonylguanine] | considerably better; also recorded: I50 values lower than that of BeG |  |  |
| Nc1nc(OCc2cc3ccccc3s2)c2nc[nH]c2n1 [B.4226, 0^6-(2-benzo[b]thienylmethyl)guanine] | I50 values lower than that of BeG |  |  |
| COc1ccccc1COc1nc(N)nc2[nH]cnc12 [B.4231, O^6-(2-methoxybenzyl)guanine, reference compound] |  |  | IC50 (recombinant human ATase; Table 4, 1 hour incubation with inactivator at 37° C., read-out: I50): 60000 nM |
| Nc1nc(OCc2cc3ccccc3o2)c2nc[nH]c2n1 [B.4266, 0^6-(2-benzofuranylmethyl)guanine] | I50 values lower than that of BeG |  |  |
| Nc1nc(OCc2ccc(Br)s2)c2nc[nH]c2n1 [B.4269, 0^6-(5-bromothenyl)guanine] | more efficient than the unsubstituted thenyl derivative B.4205; also recorded: I50 values lower than that of BeG |  |  |
| N#Cc1ccc(COc2nc(N)nc3[nH]cnc23)o1 [B.4273, 0^6-(5-cyanofurfuryl)guanine] | I50 values lower than that of BeG |  |  |
| Nc1nc(OCc2cncs2)c2nc[nH]c2n1 [B.4275, 0^6-(5-thiazolylmethyl)guanine] | I50 values lower than that of BeG |  |  |
| Nc1nc(OCc2ccc(Cl)s2)c2nc[nH]c2n1 [B.4281, O^6-(5-chlorothenyl)guanine] |  | 4 nM |  |
| N#Cc1ccc(COc2nc(N)nc3[nH]cnc23)s1 [B.4283, O^6-(5-cyanothenyl)guanine] |  | 5 nM |  |
| C[S+]([O-])c1ccc(COc2nc(N)nc3[nH]cnc23)s1 (stereo not drawn) [B.4294, O^6-(5-methylsulphinylthenyl)guanine] |  | 30 nM |  |
| Nc1nc(OCc2cc(Cl)cs2)c2nc[nH]c2n1 [B.4298, O^6-(4-chlorothenyl)guanine] |  | 8 nM |  |
| COc1csc(COc2nc(N)nc3[nH]cnc23)c1 [B.4300, O^6-(4-methoxythenyl)guanine] |  | 16.5 nM |  |
| Nc1nc(OCc2csc(Br)c2)c2nc[nH]c2n1 [B.4313, O^6-(5-bromo-3-thienylmethyl)guanine] |  | 6.5 nM |  |
| N#Cc1csc(COc2nc(N)nc3[nH]cnc23)c1 [B.4317, O^6-(4-cyanothenyl)guanine] | more efficient inactivator in vitro than its 5-cyano analogue B.4283 or the unsubstituted thenyl derivative B.4205 | 2.8 nM |  |
| Nc1nc(OCc2cc(Cl)c(Cl)s2)c2nc[nH]c2n1 [B.4318, O^6-(4,5-dichlorothenyl)guanine] |  | 15 nM |  |
| Nc1nc(OCc2ccnc(Cl)c2)c2nc[nH]c2n1 [B.4321, O^6-(2-chloro-4-picolyl)guanine] |  | 40 nM |  |
| Nc1nc(OCc2ccc(Br)o2)c2nc[nH]c2n1 [B.4336, O^6-(5-bromofurfuryl)guanine] |  | 20 nM |  |
| Nc1nc(OCc2ccccc2)c2nc[nH]c2n1 [O^6 -benzylguanine, reference compound] |  |  | sensitizing Raji cells to growth inhibitory effects of BCNU, in words (Raji cells [1]): equally effective; survival at 336 h ([2]; inactivator 60 mg/kg + 10 mg/kg BCNU): 50%; survival at 336 h ([2]; inactivator 60 mg/kg + 15 mg/kg BCNU (footnote *)): 0%; survival at 336 h ([2]; inactivator 60 mg/kg + 20 mg/kg BCNU): 33%; dose response of Raji sensitization to temozolomide, in words (Raji cells [3]): clear dose response; death of treated animals (nude mice): up to 70%; sensitization of GM-CFC to cytotoxic effects of temozolomide, in words ([4]; four different patient samples, 10 μM (FIG. 23)): sensitized; sensitization of GM-CFCs to toxic effects of temozolomide, in words ([4]; three human bone marrow samples (FIG. 14)): sensitised; inactivation of ATase in human melanoma xenografts, in words [5]: inactivated |
